# Source: PubChem BioAssay (NCI)
#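 Here, GI50 denotes the concentration required for 50% inhibition of growth. TGI marks complete inhibition of growth.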
# What was measured:
# Assay in all cases: DTP human tumour cell line panel, 384-well format
# [1] = tested on: SNB-19 CNS
# [2] = tested on: NCI-H226 lung
# [3] = tested on: HS 578T breast
# [4] = tested on: A498 renal
# [5] = tested on: K-562 leukemia
# [6] = tested on: SW-620 colon
# [7] = tested on: A549 NSCLC
# [8] = tested on: DU-145 prostate
# [9] = tested on: UACC-257 melanoma
# [10] = tested on: NCI-H23 lung
# [11] = tested on: COLO 205 colon
# [12] = tested on: SF-539 CNS
# [13] = tested on: OVCAR-8 ovarian
# [14] = tested on: SK-MEL-5 melanoma
# [15] = tested on: HT29 colon
# [16] = tested on: HL-60(TB) leukemia
# [17] = tested on: SR leukemia
# [18] = tested on: UACC-62 melanoma
# [19] = tested on: NCI-H322M lung
# [20] = tested on: MDA-MB-468 breast
# [21] = tested on: T-47D breast
# [22] = tested on: SK-MEL-2 melanoma
# [23] = tested on: SK-MEL-28 melanoma
# [24] = tested on: U251 glioblastoma
# [25] = tested on: OVCAR-4 ovarian
# [26] = tested on: HOP-62 NSCLC
# [27] = tested on: 786-0 renal
# [28] = tested on: SF-268 CNS
# [29] = tested on: IGROV1 ovarian
# [30] = tested on: KM12 colon
# [31] = tested on: HCT-116 colon
# [32] = tested on: M14 melanoma
# [33] = tested on: OVCAR-5 ovarian
# [34] = tested on: NCI-H460 NSCLC
# [35] = tested on: NCI-H522 lung
# [36] = tested on: MOLT-4 leukemia
# [37] = tested on: PC-3 prostate
# [38] = tested on: HOP-92 NSCLC
# [39] = tested on: MDA-MB-231 breast
# [40] = tested on: UO-31 renal
# [41] = tested on: HCT-15 colon
# [42] = tested on: SNB-75 CNS
# [43] = tested on: BT-549 breast
# [44] = tested on: MALME-3M melanoma
# [45] = tested on: SN12C renal
# [46] = tested on: SK-OV-3 ovarian
# [47] = tested on: OVCAR-3 ovarian
# [48] = tested on: TK-10 renal
# [49] = tested on: EKVX NSCLC
# [50] = tested on: RXF 393 renal
# [51] = tested on: ACHN renal
# [52] = tested on: SF-295 CNS
# [53] = tested on: CAKI-1 renal
# [54] = tested on: MCF7 breast
# [55] = tested on: MDA-MB-435 melanoma
# [56] = tested on: RPMI-8226 leukemia
# [57] = tested on: LOX IMVI melanoma
# [58] = tested on: HCC-2998 colon
# [59] = tested on: NCI/ADR-RES ovarian
smiles,measurement,setting,value
Cc1ccc(C(=O)Nc2cccc(C(F)(F)F)c2)cc1Nc1nc(-c2cccnc2)nc2c1cnn2C,GI50,[1],3.54 µM
same,TGI,[1],13.3 µM
same,GI50,[2],0.774 µM
same,TGI,[2],2.12 µM
same,GI50,[3],1.06 µM
same,TGI,[3],2.31 µM
same,GI50,[4],1.21 µM
same,TGI,[4],2.95 µM
same,GI50,[5],0.0122 µM
same,TGI,[5],0.029 µM
same,GI50,[6],0.955 µM
same,TGI,[6],2.26 µM
same,GI50,[7],1.38 µM
same,TGI,[7],2.96 µM
same,GI50,[8],1.71 µM
same,TGI,[8],4.34 µM
same,GI50,[9],0.378 µM
same,TGI,[9],1.89 µM
same,GI50,[10],0.248 µM
same,TGI,[10],1.9 µM
same,GI50,[11],0.522 µM
same,TGI,[11],2.22 µM
same,GI50,[12],0.677 µM
same,TGI,[12],2.06 µM
same,GI50,[13],1.88 µM
same,TGI,[13],4.79 µM
same,GI50,[14],0.466 µM
same,TGI,[14],1.82 µM
same,GI50,[15],0.341 µM
same,TGI,[15],1.33 µM
same,GI50,[16],0.0806 µM
same,TGI,[16],1.28 µM
same,GI50,[17],0.39 µM
same,TGI,[17],1.32 µM
same,GI50,[18],0.309 µM
same,TGI,[18],1.51 µM
same,GI50,[19],2.06 µM
same,TGI,[19],4.89 µM
same,GI50,[20],1.08 µM
same,TGI,[20],2.31 µM
same,GI50,[21],1.29 µM
same,TGI,[21],2.7 µM
same,GI50,[22],0.24 µM
same,TGI,[22],0.959 µM
same,GI50,[23],0.319 µM
same,TGI,[23],1.84 µM
same,GI50,[24],1.63 µM
same,TGI,[24],3.24 µM
same,GI50,[25],1.59 µM
same,TGI,[25],4.05 µM
same,GI50,[26],1.41 µM
same,TGI,[26],3.27 µM
same,GI50,[27],1.12 µM
same,TGI,[27],2.41 µM
same,GI50,[28],1.7 µM
same,TGI,[28],4.21 µM
same,GI50,[29],0.782 µM
same,TGI,[29],2.6 µM
same,GI50,[30],1.49 µM
same,TGI,[30],2.98 µM
same,GI50,[31],0.372 µM
same,TGI,[31],1.88 µM
same,GI50,[32],0.291 µM
same,TGI,[32],1.41 µM
same,GI50,[33],1.41 µM
same,TGI,[33],8.45 µM
same,GI50,[34],0.383 µM
same,TGI,[34],1.75 µM
same,GI50,[35],1.38 µM
same,TGI,[35],2.72 µM
same,GI50,[36],0.593 µM
same,TGI,[36],1.89 µM
same,GI50,[37],1.82 µM
same,TGI,[37],4.55 µM
same,GI50,[38],1.58 µM
same,TGI,[38],5.85 µM
same,GI50,[39],0.181 µM
same,TGI,[39],3.87 µM
same,GI50,[40],0.605 µM
same,TGI,[40],2.09 µM
same,GI50,[41],0.882 µM
same,TGI,[41],2.16 µM
same,GI50,[42],1.96 µM
same,TGI,[42],4.28 µM
same,GI50,[43],1.67 µM
same,TGI,[43],3.66 µM
same,GI50,[44],0.222 µM
same,TGI,[44],0.757 µM
same,GI50,[45],2.15 µM
same,TGI,[45],10.3 µM
same,GI50,[46],1.88 µM
same,TGI,[46],3.94 µM
same,GI50,[47],1.49 µM
same,TGI,[47],3.21 µM
same,GI50,[48],1.37 µM
same,TGI,[48],3.13 µM
same,GI50,[49],1.15 µM
same,TGI,[49],3.08 µM
same,GI50,[50],0.137 µM
same,TGI,[50],1.11 µM
same,GI50,[51],1.03 µM
same,TGI,[51],2.51 µM
same,GI50,[52],1.72 µM
same,TGI,[52],3.15 µM
same,GI50,[53],0.972 µM
same,TGI,[53],2.15 µM
same,GI50,[54],1.31 µM
same,TGI,[54],2.62 µM
same,GI50,[55],0.487 µM
same,TGI,[55],2.39 µM
Cc1ccc(C(=O)Nc2ccc(CN3CCN(C)CC3)c(C(F)(F)F)c2)cc1C#Cc1cnc2cccnn12,GI50,[1],1.27 µM
same,TGI,[1],2.56 µM
same,GI50,[2],0.0476 µM
same,TGI,[2],0.24 µM
same,GI50,[3],0.107 µM
same,TGI,[3],0.29 µM
same,GI50,[4],0.39 µM
same,TGI,[4],1.31 µM
same,GI50,[56],0.288 µM
same,TGI,[56],0.76 µM
same,GI50,[57],0.153 µM
same,TGI,[57],0.307 µM
same,GI50,[6],0.399 µM
same,TGI,[6],1.48 µM
same,GI50,[7],0.361 µM
same,TGI,[7],1.25 µM
same,GI50,[8],0.345 µM
same,TGI,[8],1.19 µM
same,GI50,[9],0.222 µM
same,TGI,[9],0.419 µM
same,GI50,[10],0.246 µM
same,TGI,[10],0.797 µM
same,GI50,[58],0.5 µM
same,TGI,[58],1.29 µM
same,GI50,[11],0.348 µM
same,TGI,[11],1.44 µM
same,GI50,[12],0.109 µM
same,TGI,[12],0.245 µM
same,GI50,[13],0.344 µM
same,TGI,[13],1.22 µM
same,GI50,[14],0.17 µM
same,TGI,[14],0.373 µM
same,GI50,[15],0.221 µM
same,TGI,[15],0.607 µM
same,GI50,[16],0.163 µM
same,TGI,[16],0.32 µM
same,GI50,[17],0.521 µM
same,TGI,[17],0.801 µM
same,GI50,[18],0.144 µM
same,TGI,[18],0.745 µM
same,GI50,[19],0.275 µM
same,TGI,[19],0.692 µM
same,GI50,[20],0.563 µM
same,TGI,[20],1.58 µM
same,GI50,[21],0.608 µM
same,TGI,[21],1.81 µM
same,GI50,[23],0.362 µM
same,TGI,[23],1.27 µM
same,GI50,[24],0.492 µM
same,TGI,[24],1.61 µM
same,GI50,[25],0.538 µM
same,TGI,[25],1.82 µM
same,GI50,[26],0.403 µM
same,TGI,[26],1.38 µM
same,GI50,[27],0.339 µM
same,TGI,[27],1.06 µM
same,GI50,[28],0.222 µM
same,TGI,[28],0.844 µM
same,GI50,[29],0.18 µM
same,TGI,[29],0.558 µM
same,GI50,[30],0.046 µM
same,TGI,[30],1.38 µM
same,GI50,[31],0.193 µM
same,TGI,[31],0.541 µM
same,GI50,[32],0.167 µM
same,TGI,[32],0.573 µM
same,GI50,[33],0.516 µM
same,TGI,[33],1.68 µM
same,GI50,[59],0.315 µM
same,TGI,[59],1 µM
same,GI50,[34],0.396 µM
same,TGI,[34],1.51 µM
same,GI50,[35],0.147 µM
same,TGI,[35],0.582 µM
same,GI50,[36],0.203 µM
same,TGI,[36],0.619 µM
same,GI50,[37],0.872 µM
same,TGI,[37],2.07 µM
same,GI50,[38],0.249 µM
same,TGI,[38],0.58 µM
same,GI50,[39],0.171 µM
same,TGI,[39],0.399 µM
same,GI50,[40],0.392 µM
same,TGI,[40],1.15 µM
same,GI50,[41],0.265 µM
same,TGI,[41],1.02 µM
same,GI50,[42],0.217 µM
same,TGI,[42],0.79 µM
same,GI50,[43],0.309 µM
same,TGI,[43],1 µM
same,GI50,[44],0.104 µM
same,TGI,[44],0.226 µM
same,GI50,[45],0.324 µM
same,TGI,[45],1.1 µM
same,GI50,[46],0.297 µM
same,TGI,[46],1.21 µM
same,GI50,[47],0.374 µM
same,TGI,[47],1.37 µM
same,GI50,[48],0.737 µM
same,TGI,[48],1.97 µM
same,GI50,[49],0.574 µM
same,TGI,[49],1.78 µM
same,GI50,[50],0.284 µM
same,TGI,[50],0.621 µM
same,GI50,[51],0.21 µM
same,TGI,[51],0.685 µM
same,GI50,[52],1.08 µM
same,TGI,[52],2.27 µM
same,GI50,[53],0.21 µM
same,TGI,[53],0.504 µM
same,GI50,[54],0.56 µM
same,TGI,[54],1.83 µM
same,GI50,[55],0.425 µM
same,TGI,[55],1.34 µM
